Some test systems named below: MDA-MB-231 breast; MDA-N; UACC-62 melanoma; NCI-H226 lung; OVCAR-3 ovarian; HCC-2998 colon; UACC-257 melanoma; LOX IMVI melanoma; BT-549 breast; OVCAR-4 ovarian; HL-60(TB) leukemia; SK-MEL-28 melanoma.
Common to all, as to experiment: inhibition of tumour cell growth, NCI panel, 48 h

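Exposure lasted 48 hours, with cells grown in 96-well plates and compounds tested at five concentrations. TGI denotes the concentration required for complete inhibition of growth.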 Where only a bound is given, the exact number is not on record here.

In the case of `Cc1cccc(N(CCC#N)S(=O)(=O)c2ccccc2)c1`, the TGI in the experiment with MDA-MB-231 breast, in the experiment with MDA-N, in the experiment on UACC-62 melanoma, in the experiment with NCI-H226 lung, in the experiment on OVCAR-3 ovarian and in the experiment on HCC-2998 colon was greater than 100 µM throughout. Also, the TGI in the experiment with UACC-257 melanoma, in the experiment on LOX IMVI melanoma, in the experiment with BT-549 breast, in the experiment on OVCAR-4 ovarian, in the experiment with HL-60(TB) leukemia and in the experiment with SK-MEL-28 melanoma was greater than 100 µM in each case.
`O=C1C(C=NCCc2c[nH]c3ccccc23)C(C(F)(F)F)=NN1c1nc2ccccc2s1` (configuration not stated): the TGI is greater than 100 µM with MDA-MB-231 breast; greater than 100 µM with MDA-N; 43.6 µM with UACC-62 melanoma; 68 µM in the experiment on NCI-H226 lung; 50.1 µM in the experiment with OVCAR-3 ovarian; 41.9 µM in the experiment on UACC-257 melanoma. The TGI is 78.6 µM with LOX IMVI melanoma; 66.3 µM in the experiment on BT-549 breast; 63 µM in the experiment with OVCAR-4 ovarian; 47.8 µM in the experiment on HL-60(TB) leukemia; greater than 100 µM in the experiment with SK-MEL-28 melanoma.
Consider `CC1=CC=CC(C)(C)CC1(O[Si](C)(C)C)C(F)(F)F` (configuration not stated), for which the TGI in the experiment with MDA-MB-231 breast, with MDA-N, in the experiment with UACC-62 melanoma, in the experiment with NCI-H226 lung, with OVCAR-3 ovarian and in the experiment with HCC-2998 colon was greater than 100 µM in each case. For the same molecule, the TGI in the experiment with UACC-257 melanoma, in the experiment with LOX IMVI melanoma, in the experiment on BT-549 breast, in the experiment with OVCAR-4 ovarian, with HL-60(TB) leukemia and with SK-MEL-28 melanoma was greater than 100 µM each time.
Regarding `C[C@]12CC/C(=N\O)C=C1CC[C@@H]1[C@@H]2CC[C@]2(C)C(=N/O)/C(=C/c3cccnc3)C[C@@H]12`, the TGI with MDA-MB-231 breast came out at 56.2 µM; in the experiment on MDA-N it was 49.3 µM; in the experiment on UACC-62 melanoma, 10.4 µM; in the experiment on NCI-H226 lung, 18.1 µM; with UACC-257 melanoma, 57.2 µM; in the experiment with LOX IMVI melanoma, 9.74 µM. The TGI with BT-549 breast was 54.3 µM; in the experiment with OVCAR-4 ovarian, 65.3 µM; in the experiment with HL-60(TB) leukemia it was 4.12 µM; with SK-MEL-28 melanoma, 53.1 µM.
With `CC(C)c1c(P(=O)(c2ccccc2)c2ccccc2)n(C)c2ccccc12`, the TGI with MDA-MB-231 breast, with MDA-N, in the experiment with NCI-H226 lung, with OVCAR-3 ovarian, with HCC-2998 colon and with UACC-257 melanoma was greater than 100 µM throughout. In addition, the TGI in the experiment with LOX IMVI melanoma is greater than 100 µM; with BT-549 breast it was greater than 100 µM; with OVCAR-4 ovarian it was greater than 100 µM; in the experiment with HL-60(TB) leukemia it was 96.9 µM; in the experiment on SK-MEL-28 melanoma it was greater than 100 µM.
For the molecule `COC(c1ccc(C(C)(C)C)cc1)(c1ccc(C(C)(C)C)cc1)c1cc(C(O)(c2cc(C(OC)(c3ccc(C(C)(C)C)cc3)c3ccc(C(C)(C)C)cc3)c(C)cc2C)c2cc(C(OC)(c3ccc(C(C)(C)C)cc3)c3ccc(C(C)(C)C)cc3)c(C)cc2C)c(C)cc1C`, the TGI with MDA-MB-231 breast, in the experiment with MDA-N, in the experiment with UACC-62 melanoma, in the experiment with NCI-H226 lung, in the experiment on OVCAR-3 ovarian and in the experiment on HCC-2998 colon was greater than 100 µM each time. The TGI with UACC-257 melanoma, in the experiment on LOX IMVI melanoma, with BT-549 breast, in the experiment with OVCAR-4 ovarian, in the experiment on HL-60(TB) leukemia and with SK-MEL-28 melanoma was greater than 100 µM each time.
On to `Cc1ccc(C2=Nc3c(c(C)nn3-c3ccccc3)N=C(C(=O)O)C2)cc1`, for which the TGI in the experiment with MDA-MB-231 breast, with MDA-N, in the experiment with UACC-62 melanoma, with NCI-H226 lung, in the experiment with OVCAR-3 ovarian and in the experiment with HCC-2998 colon was greater than 10 µM each time. Further, the TGI in the experiment on UACC-257 melanoma, in the experiment with LOX IMVI melanoma, with BT-549 breast, in the experiment with OVCAR-4 ovarian, in the experiment on HL-60(TB) leukemia and in the experiment with SK-MEL-28 melanoma was greater than 10 µM each time.
On to `CCOC(=O)c1c(SCCN2CCCC2)n(-c2ccccc2)c(=S)n(-c2ccccc2)c1=O`, for which the TGI turned out to be 4.4 µM in the experiment with MDA-MB-231 breast; 6.01 µM in the experiment with MDA-N; 7.29 µM in the experiment on UACC-62 melanoma; 33.9 µM with NCI-H226 lung; 3.35 µM with OVCAR-3 ovarian; 3.53 µM with HCC-2998 colon. In addition, the TGI stood at 3.34 µM in the experiment on UACC-257 melanoma; 3.79 µM in the experiment on LOX IMVI melanoma; 13.9 µM in the experiment with BT-549 breast; 27 µM in the experiment with OVCAR-4 ovarian; 3.52 µM in the experiment on HL-60(TB) leukemia; 7.48 µM with SK-MEL-28 melanoma.
As for `Cc1cc(C)c2c(n1)S(=O)(=O)N(CCCN1CCN(c3cccc(C(F)(F)F)c3)CC1)/C(=C(\O)c1ccc(Cl)cc1)C2=O`, the TGI with MDA-MB-231 breast was 18.7 µM; with MDA-N, 15 µM; in the experiment on UACC-62 melanoma, 18.3 µM; with NCI-H226 lung, 8.61 µM; with OVCAR-3 ovarian, 18.9 µM; with UACC-257 melanoma, 8.49 µM. Further, the TGI with LOX IMVI melanoma was 17.6 µM; with BT-549 breast it was 19.3 µM; with OVCAR-4 ovarian, 15.1 µM; in the experiment with HL-60(TB) leukemia it was 6.15 µM; in the experiment on SK-MEL-28 melanoma, 29.8 µM.
`N#CC(C#N)=C1CCCS(=O)(=O)c2ccccc21`: the TGI in the experiment with MDA-MB-231 breast, in the experiment with MDA-N, in the experiment with UACC-62 melanoma, in the experiment with NCI-H226 lung, in the experiment with OVCAR-3 ovarian and in the experiment on HCC-2998 colon was greater than 100 µM throughout. The TGI with UACC-257 melanoma, in the experiment with LOX IMVI melanoma, with BT-549 breast, in the experiment on OVCAR-4 ovarian, in the experiment with HL-60(TB) leukemia and in the experiment with SK-MEL-28 melanoma was greater than 100 µM throughout.
For `CN1C(=O)CN(NC(=O)C2=C(O)c3ccc(Br)cc3S(=O)(=O)N2)C1=S`, the TGI with MDA-MB-231 breast, in the experiment on MDA-N, in the experiment on UACC-62 melanoma, in the experiment with NCI-H226 lung, with HCC-2998 colon and in the experiment with UACC-257 melanoma was greater than 100 µM in each case. Further, the TGI in the experiment with LOX IMVI melanoma, in the experiment on BT-549 breast, in the experiment on OVCAR-4 ovarian, in the experiment with HL-60(TB) leukemia and in the experiment with SK-MEL-28 melanoma was greater than 100 µM throughout.
Turning to `O=C1NC(=S)NC(=O)C1C(c1ccccc1[N+](=O)[O-])C1C(=O)NC(=S)NC1=O`, the TGI with MDA-MB-231 breast, with MDA-N, with UACC-62 melanoma, in the experiment with NCI-H226 lung, in the experiment on OVCAR-3 ovarian and in the experiment on UACC-257 melanoma was greater than 100 µM each time. Also, the TGI in the experiment on LOX IMVI melanoma, with BT-549 breast, with OVCAR-4 ovarian, in the experiment with HL-60(TB) leukemia and in the experiment with SK-MEL-28 melanoma was greater than 100 µM throughout.
